{"source": "patent US20240130368A1", "about": "“HERBICIDAL COMPOSITION” (Nippon Soda Co., Ltd., priority 2021, published 2024)", "format_in_all_cases": "in vivo", "key": {"Digitaria ciliaris": {"test_system": "Digitaria ciliaris", "assay": "Test Example 2: seeds on filter paper moistened with chemical solution, herbicidal effect visually evaluated", "conditions": "Compound (I-3) alone, 0.2 ppm, 6 days after the treatment"}, "Ipomoea hederacea [1]": {"test_system": "Ipomoea hederacea", "assay": "Test Example 6: foliar spraying treatment, herbicidal effect from above ground weight", "conditions": "Compound (I-3) alone", "protocol": "(§1) POA allylphenyl ether (4.1 parts by weight), POE-POP glycol (1 part by weight), POE sorbitan laurate (0.8 parts by weight), glycerin (2.6 parts by weight), dimethylformamide (65.9 parts by weight), N-methylpyrrolidone (5.1 parts by weight), cyclohexanone (15.4 parts by weight), and aromatic hydrocarbons (5.1 parts by weight) were mixed and dissolved to prepare an emulsion. The active ingredient (4 mg) of the composition of the present invention was dissolved in this emulsion (100 μL) to prepare a test emulsion. It should be noted that POA means “polyoxyalkylene”, POE means “polyoxyethylene”, and POP means “polyoxypropylene”.\nA test emulsion was prepared in the same manner as in Test Example 4.\n(§2) A 300 cm^2 pot was filled with soil, and seeds of Zea mays and Ipomoea hederacea were sown into the surface layer, and then grown in a greenhouse after being covered lightly with soil. When each plant grew to a plant height of 7 to 9 cm, the above test emulsion was diluted so that the amount of the active ingredient became a predetermined amount, and sprayed on the foliage with a small sprayer at a spray water volume of 250 L per hectare.\nTest Examples 6-1 and 6-3 were evaluated in the same manner as in Test Example 4.\nThe expected values of the herbicidal effects in Test Example 6-2 were calculated using the following Colby's formula (Colby, S. R., Calculating synergistic and antagonistic responses of herbicide combinations, Weeds, 15, pp. 20-22 (1967)).\nX indicates an herbicidal effect (%) by applying the compound (1) alone, Y and Z each indicate an herbicidal effect (%) by applying one of the two types of the compounds (II) alone, and E indicates an expected value (%) of the herbicidal effect by applying combinations of the compound (I) and two types of the compounds (II).\nWhen the actual measured value (%) of the herbicidal effect by the combined application of the compound (I) and two types of the compounds (11) is greater than the expected value E, it can be regarded that the combined application of the compound (1) and two types of the compounds (II) has a synergistic effect.\nThe following grass species were used as grass species to be controlled [scientific names]. • Morning glory [Ipomoea hederacea]"}, "Abutilon theophrasti": {"test_system": "Abutilon theophrasti", "assay": "Test Example 3: seeds on filter paper moistened with chemical solution, herbicidal effect visually evaluated", "conditions": "Compound (I-3) alone, 6 days after the treatment", "protocol": "The compound (I) or compound (II) was prepared into a 5% emulsion using DMF (containing 1.5% Tween) and diluted with water to a prescribed dosage concentration. Commercially available preparations were dissolved in water and adjusted to a prescribed dosage concentration.\nSeeds were soaked in 0.6% sodium hypochlorite for a predetermined time for surface sterilization and washed with water for use (seed disinfection). Seeds of Ambrosia artemisiifolia were used for the test.\nFilter paper was placed on a cup (diameter: 10 cm, height: 4 cm) with a lid and moistened with 8 ml of chemical solution, and seeds were sown thereon, and after covering with a lid, grown in a constant temperature room.\nThe herbicidal effects were visually evaluated, 6 days after the treatment, as the herbicidal effect (%), by comparing with a state of an untreated group using a total of 21 scores of withering index from 0 to 20 (0: mortality rate equivalent to that of the untreated group, 20: mortality rate of 100%).\n(§3) In addition, the expected values of the herbicidal effects were calculated from the herbicidal effects in a case where the compound (I) alone was applied and the herbicidal effects in a case where the compound (II) alone was applied by using the Colby's formula (Colby, S. R., Calculating synergistic and antagonistic responses of herbicide combinations, Weeds, 15, pp. 20-22 (1967)).\nM indicates an herbicidal effect (%) in the application of the compound (I) alone, N indicates an herbicidal effect (%) in the application of the compound (II) alone, and E indicates an expected value (%) of the herbicidal effect in the combined application of the compound (T) and the compound (TT). When the actual measured value (%) of the herbicidal effect in the combined application of the compound (I) and the compound (II) is greater than the expected value E, it can be regarded that the combined application of the compound (I) and the compound (II) has a synergistic effect.\nThe herbicidal effects were evaluated by the same method as in Test Example 1 except that the seeds used in the test were changed from Ambrosia artemisiifolia to Abutilon theophrasti."}, "Sorghum halepense": {"test_system": "Sorghum halepense", "assay": "Test Example 4: foliar spraying treatment, herbicidal effect from above ground weight", "conditions": "Compound (I-3) alone, 63 gai/ha, 3 weeks after spraying", "protocol": "as §1\nas §2, with “mays, Setaria faberi, Sorghum halepense, Brachiaria platyphylla, Amaranthus palmeri, Senna obtusifolia” for “mays”, “11” for “9”, “cm, it was used for” for “cm,”, “test. The” for “above”\n(§4) For the evaluation of the herbicidal effects, the above ground weights of weeds in the untreated and treated areas were measured for each weed 3 weeks after spraying treatment, and the herbicidal effect (%) was calculated by the following calculation formula.\nas §3\n(§5) M indicates an herbicidal effect (%) in the application of the compound (1) alone, N indicates an herbicidal effect (%) in the application of the compound (II) alone, and E indicates an expected value (%) of the herbicidal effect in the combined application of the compound (I) and the compound (II). When the actual measured value (%) of the herbicidal effect in the combined application of the compound (I) and the compound (II) is greater than the expected value E, it can be regarded that the combined application of the compound (1) and the compound (II) has a synergistic effect.\n(§6) Herbicidal effect (%)=[(above ground weight of weeds in untreated area)−(above ground weight of weeds in treated area)/(above ground weight of weeds in untreated area)]×100\n(§7) The following grass species were used as grass species to be controlled [scientific names]. • Giant foxtail [Setaria faberi] • Johnson grass [Sorghum halepense] • Broadleaf signalgrass [Brachiaria platyphylla] • Palmer amaranth [Amaranthus palmeri] • Sicklepod [Senna obtusifolia] • Morning glory [Ipomoea hederacea]"}, "Brachiaria platyphylla": {"test_system": "Brachiaria platyphylla", "assay": "Test Example 4: foliar spraying treatment, herbicidal effect from above ground weight", "conditions": "Compound (I-3) alone, 63 gai/ha, 3 weeks after spraying", "protocol": "as §1\nas §2, with “mays, Setaria faberi, Sorghum halepense, Brachiaria platyphylla, Amaranthus palmeri, Senna obtusifolia” for “mays”, “11” for “9”, “cm, it was used for” for “cm,”, “test. The” for “above”\nas §4, §3, §5, §6, §7"}, "Amaranthus palmeri": {"test_system": "Amaranthus palmeri", "assay": "Test Example 4: foliar spraying treatment, herbicidal effect from above ground weight", "conditions": "Compound (I-3) alone, 63 gai/ha, 3 weeks after spraying", "protocol": "as §1\nas §2, with “mays, Setaria faberi, Sorghum halepense, Brachiaria platyphylla, Amaranthus palmeri, Senna obtusifolia” for “mays”, “11” for “9”, “cm, it was used for” for “cm,”, “test. The” for “above”\nas §4, §3, §5, §6, §7"}, "Senna obtusifolia": {"test_system": "Senna obtusifolia", "assay": "Test Example 4: foliar spraying treatment, herbicidal effect from above ground weight", "conditions": "Compound (I-3) alone, 63 gai/ha, 3 weeks after spraying", "protocol": "as §1\nas §2, with “mays, Setaria faberi, Sorghum halepense, Brachiaria platyphylla, Amaranthus palmeri, Senna obtusifolia” for “mays”, “11” for “9”, “cm, it was used for” for “cm,”, “test. The” for “above”\nas §4, §3, §5, §6, §7"}, "Ipomoea hederacea [2]": {"test_system": "Ipomoea hederacea", "assay": "Test Example 4: foliar spraying treatment, herbicidal effect from above ground weight", "conditions": "Compound (I-3) alone, 63 gai/ha, 3 weeks after spraying", "protocol": "as §1\nas §2, with “mays, Setaria faberi, Sorghum halepense, Brachiaria platyphylla, Amaranthus palmeri, Senna obtusifolia” for “mays”, “11” for “9”, “cm, it was used for” for “cm,”, “test. The” for “above”\nas §4, §3, §5, §6, §7"}, "Setaria faberi": {"test_system": "Setaria faberi", "assay": "Test Example 4: foliar spraying treatment, herbicidal effect from above ground weight", "conditions": "Compound (I-3) alone, 63 gai/ha, 3 weeks after spraying", "protocol": "as §1\nas §2, with “mays, Setaria faberi, Sorghum halepense, Brachiaria platyphylla, Amaranthus palmeri, Senna obtusifolia” for “mays”, “11” for “9”, “cm, it was used for” for “cm,”, “test. The” for “above”\nas §4, §3, §5, §6, §7"}}}
{"molecule": "COC12OC1(c1ccc(C(F)(F)F)c3c1CCCS3(=O)=O)C=NN(C)C2=O", "note": "(centres unmarked) [Compound (I-3), 1-methoxy-3-methyl-6-(1,1-dioxido-8-(trifluoromethyl)thiochroman-5-yl)-7-oxa-3,4-diazabicyclo[4.1.0]hept-4-en-2-one]", "values": [{"measurement": "Herbicidal effect", "setting": "Digitaria ciliaris", "value": 75, "unit": "%"}, {"measurement": "Actual measured value of herbicidal effect", "setting": "Ipomoea hederacea [1]; 94 gai/ha", "value": 80, "unit": "%"}, {"measurement": "Actual measured value of herbicidal effect", "setting": "Ipomoea hederacea [1]; 125 gai/ha", "value": 60, "unit": "%"}, {"measurement": "Herbicidal effect", "setting": "Abutilon theophrasti; 0.2 ppm", "value": 75, "unit": "%"}, {"measurement": "Herbicidal effect", "setting": "Abutilon theophrasti; 3.1 ppm", "value": 75, "unit": "%"}, {"measurement": "Actual measured value of herbicidal effect", "setting": "Sorghum halepense", "value": 80, "unit": "%"}, {"measurement": "Actual measured value of herbicidal effect", "setting": "Brachiaria platyphylla", "value": 80, "unit": "%"}, {"measurement": "Actual measured value of herbicidal effect", "setting": "Amaranthus palmeri", "value": 100, "unit": "%"}, {"measurement": "Actual measured value of herbicidal effect", "setting": "Senna obtusifolia", "value": 60, "unit": "%"}, {"measurement": "Actual measured value of herbicidal effect", "setting": "Ipomoea hederacea [2]", "value": 70, "unit": "%"}, {"measurement": "Actual measured value of herbicidal effect", "setting": "Setaria faberi", "value": 80, "unit": "%"}]}
